What follows are molecules tested against T1, h5-HT4b (Homo sapiens, UniProt Q13639) (assay: 5HT4 antagonism: [3H]GR113808 binding to membranes of h5-HT4b-HEK 293 clone 9 cells). Conditions: displacement of [3H]GR113808 0.1 nM, h5-HT4b-HEK 293 membranes, 30 min at 25° C.; read-out: pIC50 (5HT4 antagonistic data) (converted).
T1 construct: expressed in transfected cells; host or cells: HEK 293 (clone 9), membrane preparation
Description: h5-HT4b-HEK 293 clone 9 cells were cultured in 150 mm Petri dishes and washed twice with cold PBS. The cells were then scraped from the plates and suspended in 50 mM Tris-HCl buffer, pH 7.4 and harvested by centrifugation at 23,500 rpm for 10 minutes. The pellet was resuspended in 5 mM Tris-HCl, pH 7.4 and homogenized with an Ultra Turrax homogenizer. The membranes were collected by centrifugation at 30,000 rpm for 20 min, resuspended in 50 mM Tris-HCl pH 7.4 and stored at −80° C. For the experiment, assay mixtures (0.5 ml) contained 50 μl of the tritiated ligand (5-HT4 antagonist [^3H]GR113808 0.1 nM) and 0.4 ml membrane preparation (15 μg protein/ml). 50 μl of 10% DMSO was added for total binding. 50 μl of 1 μM of (+)-trans-(1-butyl-3-hydroxy-4-piperidinyl)methyl 8-amino-7-chloro-2,3-dihydro-1,4-benzodioxin-5-carboxylate (a proprietary 5HT4 agonist of Janssen Pharmaceutica) was added for determination of non-specific binding.
The [^3H]GR113808 assay buffer was 50 mM HEPES-NaOH, pH 7.4. The mixtures were incubated for 30 min at 25° C. The incubation was terminated by filtration over a Unifilter 96 GF/B presoaked in 0.1% polyethylenimine, followed by six washing steps with 50 mM HEPES-NaOH, pH 7.4.

T1 sequence (Q13639 whole entry): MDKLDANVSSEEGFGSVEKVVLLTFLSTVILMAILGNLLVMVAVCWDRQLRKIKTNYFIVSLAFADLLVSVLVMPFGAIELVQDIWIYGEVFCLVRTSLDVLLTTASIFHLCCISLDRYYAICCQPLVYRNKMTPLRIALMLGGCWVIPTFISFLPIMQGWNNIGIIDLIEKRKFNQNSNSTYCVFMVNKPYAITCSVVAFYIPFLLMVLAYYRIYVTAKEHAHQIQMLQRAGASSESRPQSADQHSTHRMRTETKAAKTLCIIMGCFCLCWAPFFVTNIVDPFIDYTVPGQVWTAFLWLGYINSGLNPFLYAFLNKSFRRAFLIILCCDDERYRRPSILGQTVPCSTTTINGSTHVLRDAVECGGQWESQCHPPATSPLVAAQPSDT

Row | Structure (SMILES) | IC50 [µM]
1 | Nc1cc2c(c(C(=O)NC[C@@H]3CCN(CC4CCCO4)C[C@H]3O)c1)OCCCO2 (some centres unmarked) [compound 4] | 0.0692
2 | Cc1cc2c(c(C(=O)NC[C@@H]3CCNC[C@H]3O)c1)OCCCO2 [compound 5] | 0.0646
3 | CNc1cc2c(c(C(=O)NC[C@@H]3CCN(CCC4OCCO4)C[C@H]3O)c1)OCCCO2 [compound 13] | 0.708
4 | CNc1cc2c(c(C(=O)NC[C@@H]3CCN(CCC4OCCO4)C[C@H]3O)c1)OCCO2 [compound 17] | 0.0257
5 | CNc1cc2c(c(C(=O)NC[C@@H]3CCN(CC4CCCO4)C[C@H]3O)c1)OCCO2 (some centres unmarked) [compound 19] | 0.0174
6 | CNc1cc2c(c(C(=O)NC[C@@H]3CCN(CC4CCCO4)C[C@H]3O)c1)OCCCO2 (some centres unmarked) [compound 21] | 0.0631
7 | Nc1cc2c(c(C(=O)NC[C@@H]3CCN(CC4CCCO4)C[C@H]3O)c1)OCCO2 (some centres unmarked) [compound 22] | 0.0178
8 | CNc1cc2c(c(C(=O)NC[C@@H]3CCN(CCCC(=O)O)C[C@H]3O)c1)OCCCO2 [compound 27] | 2.63
9 | CNc1cc2c(c(C(=O)NC[C@@H]3CCN(CCCOC4CCCCC4)C[C@H]3O)c1)OCCCO2 [compound 34] | 0.0316
10 | CNc1cc2c(c(C(=O)NC[C@@H]3CCN(CCOC)C[C@H]3O)c1)OCCO2 [compound 35] | 0.0447
11 | CNc1cc2c(c(C(=O)NC[C@@H]3CCN(CCCOC(C)C)C[C@H]3O)c1)OCCO2 [compound 36] | 0.0214
12 | CC(C)OCCCN1CC[C@@H](CNC(=O)c2cc(N)cc3c2OCCCO3)[C@H](O)C1 [compound 37] | 0.0363
13 | CNc1cc2c(c(C(=O)NC[C@@H]3CCN(CCCC#N)C[C@H]3O)c1)OCCCO2 [compound 38] | 0.288

The next lines start with the values.

Row | IC50 [µM] | Structure (SMILES)
14 | 0.038 | N#CCCCN1CC[C@@H](CNC(=O)c2cc(N)cc3c2OCCCO3)[C@H](O)C1 [compound 3]
15 | 0.0575 | N#CCCCN1CC[C@@H](CNC(=O)c2cc(N)cc3c2OCCO3)[C@H](O)C1 [compound 6]
16 | 0.0178 | Nc1cc(C(=O)NC[C@@H]2CCN(CCCO)C[C@H]2O)c2c(c1Cl)OCCO2 [compound 7]
17 | 0.372 | Nc1cc(C(=O)NC[C@@H]2CCNC[C@H]2O)c2c(c1Cl)OCCO2 [compound 8]
18 | 0.0162 | COCCCN1CC[C@@H](CNC(=O)c2cc(N)c(Cl)c3c2OCCO3)[C@H](O)C1 [compound 9]
19 | 0.00603 | Nc1cc(C(=O)NC[C@@H]2CCN(CC3CCCO3)C[C@H]2O)c2c(c1Cl)OCCO2 (some centres unmarked) [compound 10]
20 | 0.0417 | CNc1cc2c(c(C(=O)NC[C@@H]3CCN(CCCO)C[C@H]3O)c1)OCCO2 [compound 12]
21 | 0.0166 | Nc1cc(C(=O)NC[C@@H]2CCN(CCC3OCCO3)C[C@H]2O)c2c(c1Cl)OCCO2 [compound 14]
22 | 0.0302 | N#CCCCN1CC[C@@H](CNC(=O)c2cc(N)c(Cl)c3c2OCCO3)[C@H](O)C1 [compound 15]
23 | 0.195 | Nc1cc2c(c(C(=O)NC[C@@H]3CCN(CCCC(=O)O)C[C@H]3O)c1)OCCO2 [compound 18]
24 | 0.0525 | CNc1cc2c(c(C(=O)NC[C@@H]3CCN(CCCC#N)C[C@H]3O)c1)OCCO2 [compound 20]
25 | 0.0191 | CC(C)OCCCN1CC[C@@H](CNC(=O)c2cc(N)cc3c2OCCO3)[C@H](O)C1 [compound 23]
26 | 0.138 | Nc1cc(C(=O)NC[C@@H]2CCN(CCCC(=O)O)C[C@H]2O)c2c(c1Cl)OCCO2 [compound 25]
27 | 0.0155 | CCCCN1CC[C@@H](CNC(=O)c2cc(NC)c(Cl)c3c2OCCO3)[C@H](O)C1 [compound 28]
28 | 0.011 | COCCCCN1CC[C@@H](CNC(=O)c2cc(N)c(Cl)c3c2OCCO3)[C@H](O)C1 [compound 29]
29 | 0.0316 | CNc1cc(C(=O)NC[C@@H]2CCN(CCC3OCCO3)C[C@H]2O)c2c(c1Cl)OCCO2 [compound 30]
30 | 0.00331 | Nc1cc(C(=O)NC[C@@H]2CCN(CCCOC3CCCCC3)C[C@H]2O)c2c(c1Cl)OCCO2 [compound 31]
31 | 0.0631 | COCCN1CC[C@@H](CNC(=O)c2cc(N)cc3c2OCCO3)[C@H](O)C1 [compound 32]
32 | 1.23 | Nc1cc2c(c(C(=O)NC[C@@H]3CCN(CCCC(=O)O)C[C@H]3O)c1)OCCCO2 [compound 39]
